Results on nine molecules are retold here after patent US7189858B2, “N-phenyl substituted carbamoyloxyalkyl-azolium derivatives” (Basilea Pharmaceutica AG, priority 1999, dated 2007).

Molecules are shown by their SMILES. Like-named read-outs stand apart in the source and are kept apart here.

The format of series [1] is in vitro ADME. To be noted: human.
A short description of a further series: Solubility (Table 1). To be noted: solvent a = distilled water.
The test system of another series is Aspergillus fumigatus. As to the kind of experiment: Rat systemic aspergillosis model. The class given is in vivo. Particulars: day 14 after infection. From the text:
(§1) Male Fisher rats, strain F344/DuCrj, were employed for experimental infection models such as systemic candidiasis, systemic aspergillosis and pulmonary aspergillosis model. Immunocompetent 4 weeks old rats were used for systemic candidiasis or systemic aspergillosis which occurred after infection with Candida albicans conidia of 5×10^6/rat or with Aspergillus fumigatus conidia of 6×10^5/rat via tail vein. Otherwise for pulmonary aspergillosis model, rats had been immunosuppressed with cortisone acetate treatments prior to infection with 2×10^5/rat intratrachially. Treatments were given twice on the first day and once daily on following 4 days both for systemic and pulmonary aspergillosis (Ib.i.+4q.d.), for systemic candidiasis rats were treated at 0, 4, 24, and 48 h after infection (Ib.i.d.+2q.d.). Effective dose 50% (ED50) values were determined on day 14 after infection.

For the next series, the system named is C. tropicalis CY5042. Nature of the series: Rat systemic mycosis, C. tropicalis CY5042. It is filed as in vivo. To be noted: for ED50: Candida tropicalis, CY5042, 336 h, read-out: Rat systemic mycosis ED50 on day 14, C. tropicalis CY5042.
A further series relates to C. albicans CY3003. As to the kind of experiment: Rat systemic mycosis, C. albicans CY3003. It is filed as in vivo. Particulars: for ED50: Candida albicans, CY3003, 336 h, read-out: Rat systemic mycosis ED50 on day 14, C. albicans CY3003.
Source text: as §1

Another series concerns C. parapsilosis KULM219C. Nature of the series: Rat systemic mycosis, C. parapsilosis KULM219C. The class given is in vivo. Particulars: for ED50: Lodderomyces parapsilosis, KULM219C, 336 h, read-out: Rat systemic mycosis ED50 on day 14, C. parapsilosis KULM219C.
A further series deals with C. albicans CY1002. Nature of the series: Rat systemic mycosis, C. albicans CY1002. It is filed as in vivo. To be noted: for ED50: Candida albicans, CY1002, 336 h, read-out: Rat systemic mycosis ED50 on day 14, C. albicans CY1002.
Source text: as §1

Series [2] deals with FCZ^R - C. albicans UTHS93-2067. As to the kind of experiment: Rat systemic mycosis, FCZ^R C. albicans UTHS93-2067. The class given is in vivo. Particulars: for ED50: Candida albicans, 336 h, read-out: Rat systemic mycosis ED50 on day 14, FCZ^R - C. albicans UTHS93-2067.
Source text: as §1

The next series deals with A. fumigatus CF1003. As to the kind of experiment: Rat systemic mycosis, A. fumigatus CF1003. It is filed as in vivo. Particulars: for ED50: Aspergillus fumigatus, CF1003, 336 h, read-out: Rat systemic mycosis ED50 on day 14, A. fumigatus CF1003.
Source text: as §1

For the next series, the system named is Candida albicans. As to the kind of experiment: Rat systemic candidiasis model (Fluconazole resistance). It is filed as in vivo. To be noted: day 14 after infection.
Source text: as §1

The conditions of series [3]: rat.

As to `CNCC(=O)OCc1ccc(Cl)cc1N(C)C(=O)OC(C)[n+]1cnn(C[C@](O)(c2cc(F)ccc2F)[C@@H](C)c2nc(-c3ccc(C#N)cc3)cs2)c1.Cl.[I-]` (stereo partly drawn) [Example 7.10., 1-[[N-methyl-N-2-(methylamino)acetoxymethyl-5-chloro-phenyl]carbamoyloxy]ethyl-1-[(2R,3R)-2-(2,5-difluorophenyl)-2-hydroxy-3-[4-(4-cyanophenyl)thiazol-2-yl]butyl]-1H-[1,2,4]triazol-4-ium iodide hydrochloride], the “Conversion (half-life) to (2R,3R)-3-[4-(4-cyanophenyl)thiazol-2-yl)]-2-(2,5-difluorophenyl)-1-(1H-1,2,4-triazol-1-yl)-butan-2-ol (u) in plasma” value (“Conversion (half-life)” below) in series [1] was determined as 3 min in human plasma.
As to `CC(C)NCc1ccccc1N(C)C(=O)OC(C)[n+]1cnn(C[C@](O)(c2cc(F)ccc2F)[C@@H](C)c2nc(-c3ccc(C#N)cc3)cs2)c1.Cl.[Cl-]` (stereo partly drawn) [Example 6, 1-[[N-methyl-N-2-(isopropylaminomethyl)phenyl]carbamoyloxy]ethyl-1-[(2R,3R)-2-(2,5-difluorophenyl)-2-hydroxy-3-[4-(4-cyanophenyl)thiazol-2-yl]butyl]-1H-[1,2,4]triazol-4-ium chloride hydrochloride], the Solubility (in general, the dissolved amount per volume that the medium holds) in the series “Solubility (Table 1)” is greater than 10000 µg/mL.
With `CNCC(=O)OCc1cccnc1N(C)C(=O)OC(C)[n+]1cnn(C[C@](O)(c2cc(F)ccc2F)[C@@H](C)c2nc(-c3ccc(C#N)cc3)cs2)c1.Cl.[Cl-]` (stereo partly drawn) [Example 7, 1-[[N-methyl-N-3-[(methylamino)acetoxymethyl]pyridin-2-yl]carbamoyloxy)ethyl-1-[(2R,3R)-2-(2,5-difluorophenyl)-2-hydroxy-3-[4-(4-cyanophenyl)thiazol-2-yl]butyl]-1H-[1,2,4]triazol-4-ium chloride hydrochloride], the entries for the “ED50, Systemic aspergillosis” value with Aspergillus fumigatus (i.v.) and with Aspergillus fumigatus (p.o.) were 13.5 µmol/kg and 8.8 µmol/kg, respectively. In addition, the “Rat systemic mycosis ED50 on day 14, C. tropicalis CY5042” value in the series with C. tropicalis CY5042 (I.V.) and in the series with C. tropicalis CY5042 (PO.) was 1 µmol/kg each time. In addition, the figures for the “Rat systemic mycosis ED50 on day 14, C. albicans CY3003” value in the series with C. albicans CY3003 (I.V.) and in the series with C. albicans CY3003 (PO.) were 1.6 µmol/kg and 2.5 µmol/kg, respectively. In addition, the “Conversion (half-life)” value in series [1] is on record as less than 2 min in human plasma. For the same molecule, the “Rat systemic mycosis ED50 on day 14, C. parapsilosis KULM219C” value in the series on C. parapsilosis KULM219C (I.V.) worked out at 7.6 µmol/kg; in the series with C. parapsilosis KULM219C (PO.), 6.5 µmol/kg. Moreover, the “Rat systemic mycosis ED50 on day 14, C. albicans CY1002” value in the series on C. albicans CY1002 (I.V.) and in the series with C. albicans CY1002 (PO.) was 4 µmol/kg in each case. For the same molecule, the “Rat systemic mycosis ED50 on day 14, FCZ^R - C. albicans UTHS93-2067” value in series [2] (I.V.) stood at 2.8 µmol/kg; in series [2] (PO.) it was 7 µmol/kg. Further, the “Rat systemic mycosis ED50 on day 14, A. fumigatus CF1003” value was 11 µmol/kg in the series on A. fumigatus CF1003 (I.V.) and 9 µmol/kg with A. fumigatus CF1003 (PO.). Further, the “ED50, Systemic Fluconazole resistance candidiasis” value is 13.3 µmol/kg with Candida albicans (i.v.) and 14.1 µmol/kg in the series on Candida albicans (p.o.).
Turning to `OC(Cn1cncn1)(Cn1cncn1)c1ccc(F)cc1F` [Fluconazole, reference compound], the ED50 (as a rule, the midpoint of the dose-response relation) with C. tropicalis CY5042 (PO.) worked out at 2 µmol/kg; in the series on C. albicans CY3003 (PO.), 1 µmol/kg; with C. parapsilosis KULM219C (PO.), 17 µmol/kg; with C. albicans CY1002 (PO.), 1.9 µmol/kg; in [2] (PO.) it was 8.1 µmol/kg; in the series on A. fumigatus CF1003 (PO.), 94 µmol/kg. For the same molecule, in the series on Candida albicans (Candida albicans, po, 336 h, p.o.), the 50% effective dose (ED50) was 21.8 µmol/kg.
With `CNCC(=O)OCc1c(F)cccc1N(C)C(=O)OC(C)[n+]1cnn(C[C@](O)(c2cc(F)ccc2F)[C@@H](C)c2nc(-c3ccc(C#N)cc3)cs2)c1.Cl.[Cl-]` (stereo partly drawn) [Example 7.13., 1-[[N-methyl-N-2-(methylamino)acetoxymethyl-3-fluoro-phenyl]carbamoyloxy]ethyl-1-[(2R,3R)-2-(2,5-difluorophenyl)-2-hydroxy-3-[4-(4-cyanophenyl)thiazol-2-yl]butyl]-1H-[1,2,4]triazol-4-ium chloride hydrochloride], the “Conversion (half-life)” value in series [1] is on record as 2 min in human plasma.
Turning to `CNCC(=O)OCc1cc(F)ccc1N(C)C(=O)OC(C)[n+]1cnn(C[C@](O)(c2cc(F)ccc2F)[C@@H](C)c2nc(-c3ccc(C#N)cc3)cs2)c1.Cl.[I-]` (stereo partly drawn) [Example 7.4., 1-[[N-methyl-N-2-(methylamino)acetoxymethyl-4-fluoro-phenyl]carbamoyloxy]ethyl-1-[(2R,3R)-2-(2,5-difluorophenyl)-2-hydroxy-3-[4-(4-cyanophenyl)thiazol-2-yl]butyl]-1H-[1,2,4]triazol-4-ium iodide hydrochloride], the “Conversion (half-life)” value in series [1] is on record as 2 min in human plasma.
With `CC(=O)OCc1ccccc1N(C)C(=O)OC[n+]1cnn(C[C@](O)(c2cc(F)ccc2F)[C@@H](C)c2nc(-c3ccc(C#N)cc3)cs2)c1.[Cl-]` [Example 5, [[N-methyl-N-2-(acetoxymethyl)phenyl]carbamoyloxy]methyl-1-[(2R,3R)-2-(2,5-difluorophenyl)-2-hydroxy-3-[4-(4-cyanophenyl)thiazol-2-yl]butyl]-1H-[1,2,4]triazol-4-ium chloride], the “Conversion (half-life)” value in series [3] is listed as less than 2 min in rat plasma.
With `CNCC(=O)OCc1cc(F)c(F)cc1N(C)C(=O)OC(C)[n+]1cnn(C[C@](O)(c2cc(F)ccc2F)[C@@H](C)c2nc(-c3ccc(C#N)cc3)cs2)c1.Cl.[Cl-]` (stereo partly drawn) [Example 7.3., 1-[[N-methyl-N-2-(methylamino)acetoxymethyl-4,5-difluorophenyl]carbamoyloxy]ethyl-1-[(2R,3R)-2-(2,5-difluorophenyl)-2-hydroxy-3-[4-(4-cyanophenyl)thiazol-2-yl]butyl]-1H-[1,2,4]triazol-4-ium chloride hydrochloride], in series [1], the “Conversion (half-life)” value was found to be 6 min in human plasma.
As for `CCC(C)n1ncn(-c2ccc(N3CCN(c4ccc(OCC5COC(Cn6cncn6)(c6ccc(Cl)cc6Cl)O5)cc4)CC3)cc2)c1=O` (stereo not shown) [Itraconazole, 4-[4-[4-[4-[[2-(2,4-Dichlorophenyl)-2-(1H-1,2,4-triazol-1-ylmethyl)-1,3-dioxolan-4-yl]methoxy]phenyl]-1-piperazinyl]phenyl]-2,4-dihydro-2-(1-methylpropyl)-3H-[1,2,4]triazol-3-one, reference compound], the ED50 in the series with Aspergillus fumigatus (Aspergillus fumigatus, po, 336 h, p.o.) was found to be 4.9 µmol/kg; with C. tropicalis CY5042 (PO.), 2 µmol/kg; in the series on C. albicans CY3003 (PO.) it was 2.3 µmol/kg; in the series with C. parapsilosis KULM219C (PO.), 20 µmol/kg; in the series with C. albicans CY1002 (PO.) it was 4.7 µmol/kg; in [2] (PO.), 4.2 µmol/kg. The ED50 with A. fumigatus CF1003 (PO.) turned out to be 8.9 µmol/kg.
